Reference: patent US6485755B1, “Methods of using electron active compounds for managing cancer” (Marantech Holding, priority 2000, dated 2002)
Read-outs that look alike come from different tables or passages of the source.

Legend:
[1] = persons not prone to silver allergies
Text: Preferred routes of administration include topically and application to mucosa. Application can be made, for example, digitally or using a suitable applicator.

breast cancer = test system: breast cancer
Procedure: A subject group was formed of thirty female residents of Central America aged 32 to 52 years who had been diagnosed as having breast cancer. […] The diagnosis of each subject was confirmed by biopsy and a mammogram was acquired from each subject.
Each subject was evaluated daily by an oncologist(s) and each received a single dosage of tetrasilver tetroxide by IV, i.e., intravenously, sufficient to provide a concentration in the bloodstream of 10 ppm. One-half of the patients received the dosage in 10 minutes by IV injection. The other half of the subjects received the dosage by IV injection over a 4-hour period.
As discussed below, the subjects were arranged in three histology groups. Within each histologic group, 50% of the subjects received the dosage via the 10 minute IV and the other 50% of the subjects received the dosage over the 4 hour period of time.
Prior to initiating treatment, the tetrasilver tetroxide was subjected a quality assurance protocol to reduce side effects.
Group I: Group I included 10 patients who had been diagnosed as having infiltrative canalicular breast carcinoma.
A 1 cm diameter biopsy fragment was sent to a pathologist laboratory.
Group II: Group II included 10 subjects were diagnosed as having ductile carcinoma special type, medular breast cancer.
Group III: Group III included ten patients diagnosed as having infiltrative lobular breast cancer.
For each of the three groups, the dosage was 10 ppm for every subject. The patients had 24-hour evaluations by three oncologists who were each responsible for an 8-hour time period. Every 4 hours, a professional nurse acquired vital signs from the subjects. Twenty-four hour hemodynamic monitoring was performed. The subjects walked 2 hours after they received the dosage and they were prescribed a free diet. Every twenty-four hours, urine was collected. Every seven days, the following laboratory tests were performed: a complete blood count, hemoglobin, hematocracity, vcm, vhcm, complete red blood cells, complete white blood cells, albumin, bilirubin, calcium, and cholesterol, creatine, glucose, ldh, potassium, sodium, triglyceride, uric acid, urea nitrogen, AST and SGOT.

A498 = settings: A498, estimated
Procedure: (§1) An independent laboratory performed cytotoxicity tumor cell proliferation studies and evaluations. A culture of leukemia K562 was tested in vitro against media concentrations of tetrasilver tetroxide at: 0.5, 1,5, 10, 50, 100, 500 and 1000 ppm.
(§2) The tetroxide was dispersed in pure dimethyl sulfoxide and then diluted with Holipharm NPS buffer PH=7.4 (Holipharm International Co., Wilmington, Del.) in culture media to achieve the aforesaid final assay concentrations. The acronym NPS refers to non phosphate non saline. The culture media comprised RPMI 1640, 90% and fetal bovine serum, 10%. The cancer cultures were obtained from a cell line provided by the American Type Culture Collection (ATCC) and were incubated at 37° C. with 5% CO2 in air atmosphere. The culture was a human chronic myelogenous leukemia, of cell line source ATCCCCL-243.
(§3) As for the actual evaluation, cell proliferation analysis was based on the ability of viable cells to cause alamar blue to change from oxidized (non-fluorescent, blue) to reduced (fluorescent, red) form. Details of the procedure are described in an article by S. Ansar Ahmed et. al. in the Journal of Immunological Methods 170 (1994).
(§4) The ^aIC50 (50% Inhibition Concentration) is the test compound concentration where the increase from times in the number or mass of treated cells was only 50% as much as the corresponding increase in the vehicle-control at the end of experiment. The bTGI (Total Growth Inhibition) is the test compound concentration where the number or mass of treated cells at the end of experiment was equal to that at time. The CLC (50% Lethal Concentration) is the test compound concentration where the number or mass of treated cells at the end of experiment was half that at time.

A549 = settings: A549, estimated
Procedure: as §1, §2, §3, §4

DLD-i = settings: estimated
Procedure: as §1, §2, §3, §4

H33HJ-.JA1 = settings: H33HJ-.JA1, estimated
Procedure: as §1, §2, §3, §4

HL-60 = settings: HL-60, estimated
Procedure: as §1, §2, §3, §4

HeDG2 = settings: HeDG2, estimated
Procedure: as §1, §2, §3, §4

KATO III = settings: estimated
Procedure: as §1, §2, §3, §4

MCF-7 = settings: MCF-7, estimated
Procedure: as §1, §2, §3, §4

MIA PaCa2 = settings: MIA PaCa2, estimated
Procedure: as §1, §2, §3, §4

PANC-i = settings: estimated
Procedure: as §1, §2, §3, §4

PC-3 = settings: PC-3, estimated
Procedure: as §1, §2, §3, §4

T47D = settings: estimated
Procedure: as §1, §2, §3, §4

U937 = settings: U937, estimated
Procedure: as §1, §2, §3, §4

[2] = test system: human malignant melanoma cell line SK-MEL-5
Procedure: as §1, §2, §3, §4

leukemia K562 = test system: leukemia K562
Procedure: as §1, §2, §3, §4

pc-6 = settings: pc-6, estimated
Procedure: as §1, §2, §3, §4

[3] = test system: gynecological yeast infection; settings: 10 ppm silver tetroxide and 40 ppm sodium persulfate; cited from earlier work
athlete's foot = settings: solution of 100 ppm of the composition; cited from earlier work
toenail fungus = settings: 25% suspension of the composition; cited from earlier work
[4] = single IV injection at about 40 ppm of human blood; cited from earlier work
[5] = compared with Ag(I) compounds; cited from earlier work
[6] = Group III, day 20 after treatment

## [Ag+].[Ag+].[Ag+].[Ag+].[O-2].[O-2].[O-2].[O-2] [tetrasilver tetroxide]
[1]
  ill effects or irritation on application to the skin: without any ill effects or evidence of irritation
Breast cancer; Group I
  sodium, potassium and magnesium blood levels: decreased
Breast cancer; Group I infiltrative canalicular breast carcinoma, single IV dose 10 ppm in bloodstream, 12 days after treatment
  nodule on palpation: the nodule was no longer discernable by touch
Breast cancer; Group I, 10 minute IV injection subgroup
  patients with increase in body temperature and slight liver enlargement: Three of the patients
Breast cancer; Group I, biopsy ordered 19 days after treatment
  biopsies reported as normal mammary tissue: 100%
Breast cancer; Group I, patients with liver enlargement
  liver function: not affected
Breast cancer; Group II
  liver function: not affected
  sodium, potassium and magnesium blood levels: decreased
Breast cancer; Group II medular breast cancer, 36 hours after treatment, formerly 10 cm
  average tumor size: 8.4 cm
Breast cancer; Group II, biopsy after 24 days
  biopsy reported as normal mammary tissue: 90%
Breast cancer; Group II, day 16 after treatment
  tumor mass: the huge tumor mass was gone
Breast cancer; Group II, direct IV injection subgroup
  patients with increase in body temperature and slight liver enlargement: One patient
Breast cancer; Group III
  sodium, potassium and magnesium blood levels: deceased
Breast cancer; Group III infiltrative lobular breast cancer, 5 days after treatment, from 4 cm
  average nodule size: 2.6 cm
Breast cancer; Group III, biopsy ordered day 29 after treatment
  biopsies reported as normal mammary tissue: 80%
Breast cancer; [6]
  average nodule size: 1 cm
  remission of retracted nipples, nipple bleeding, distorted areola, mass attachment: 90%
Breast cancer; Group III, direct injection subgroup
  patients with increase in body temperature or slight liver enlargement: None of the patients
Breast cancer; ductile carcinoma special type, medular breast carcinoma (Group II)
  period to apparent cure: 30 days
Breast cancer; infiltrative breast carcinoma (Group I)
  period to apparent cure: 24 days
Breast cancer; infiltrative lobular breast cancer (Group III)
  period to apparent cure: 30 days
A498
  IC50: 1.8 ppm
  LC50: 3.1 ppm
  TGI: 2.4 ppm
A549
  IC50: 4.8 ppm
  LC50: 7.0 ppm
  TGI: 5.8 ppm
DLD-i
  IC50: 2.5 ppm
  LC50: 3.6 ppm
  TGI: 3.0 ppm
H33HJ-.JA1
  IC50: 0.79 ppm
  LC50: 3.8 ppm
  TGI: 1.3 ppm
HL-60
  IC50: 2.1 ppm
  LC50: 4.6 ppm
  TGI: 3.1 ppm
HeDG2
  IC50: 2.6 ppm
  LC50: 4.7 ppm
  TGI: 3.5 ppm
KATO III
  IC50: 3.2 ppm
  LC50: 4.1 ppm
  TGI: 3.6 ppm
MCF-7
  IC50: 3.0 ppm
  LC50: 5.0 ppm
  TGI: 3.9 ppm
MIA PaCa2
  IC50: 2.0 ppm
  LC50: 8.1 ppm
  TGI: 4.0 ppm
PANC-i
  IC50: 4.8 ppm
  LC50: 8.6 ppm
  TGI: 6.4 ppm
PC-3
  IC50: 7.7 ppm
  LC50: 25 ppm
  TGI: 14 ppm
T47D
  IC50: 1.1 ppm
  LC50: 2.6 ppm
  TGI: 1.6 ppm
U937
  IC50: 1.3 ppm
  LC50: 3.6 ppm
  TGI: 2.2 ppm
[2]
  IC50 (50% Inhibition Concentration): 3.7 ppm
  LC50 (50% Lethal Concentration): 6.5 ppm
  TGI (Total Growth Inhibition): 4.9 ppm
Leukemia K562
  IC50 (50% Inhibition Concentration): 2.2 ppm
  LC50 (50% Lethal Concentration): 6.0 ppm
  TGI (Total Growth Inhibition): 4.6 ppm
pc-6
  IC50: 0.9 ppm
  LC50: 1.1 ppm
  TGI: 1.0 ppm
[3]
  outcome of gynecological yeast infection: curing
athlete's foot
  outcome of athlete's foot, single case: cure
Toenail fungus
  outcome of toenail fungus, single case: cure
[4]
  adverse effect on the liver: hepatomegaly
  liver function: no reported loss of liver function
[5]
  staining of organic matter such as skin: did not stain organic matter such as skin
